From patent US10626144B2, “Peptide derivatives and uses thereof” (Nosopharm, priority 2014, dated 2020)
Numbered stars: 1 amine (or outer) side, 2 acyl side, 3 side chain; on linkers, the order of the positions; unused ones are H or OH. Square brackets hold non-standard residues; d marks the D form. Peptide text beside a SMILES is read from it. * marks the point of attachment. Pro(cis-4-CF3) = O=C(O)[C@@H]1C[C@H](C(F)(F)F)CN1; Pro(trans-4-F) = O=C(O)[C@@H]1C[C@@H](F)CN1; Pro(cis-4-F) = O=C(O)[C@@H]1C[C@H](F)CN1; Pro(4,4-F2) = O=C(O)[C@@H]1CC(F)(F)CN1; Dab(3S-OH) = NC[C@H](O)[C@H](N)C(=O)O; X4 = N=C(N)NCC/C=C(/N[*:1])C(=O)[*:2]; Ethylenediamine = C(CN[*:2])N[*:1]; ΔZArg = N=C(N)NCC/C=C(\N)C(=O)O; NMeK = CN[C@@H](CCCCN)C(=O)O; dOrn = NCCC[C@@H](N)C(=O)O; Pip = O=C(O)[C@@H]1CCCCN1; Dab = NCC[C@H](N)C(=O)O; NH(CH2)5NH2 = NCCCCCN*; NH(CH2)4NH2 = NCCCCN*; NHOH = ON*

Columns and labels:
Experiment in all cases: MIC, broth microdilution (CLSI), reference strain
Conditions in all cases: CAMHB
[1] = system: Staphylococcus aureus ATCC 13709
[2] = system: Escherichia coli ATCC 25922
[3] = system: Pseudomonas aeruginosa ATCC 27853
[4] = system: Acinetobacter baumannii ATCC 19606

Row | Structure (SMILES) | Sa: MIC Staphylococcus aureus ATCC 13709 [1] | Ec: MIC Escherichia coli ATCC 25922 [2] | Pa: MIC Pseudomonas aeruginosa ATCC 27853 [3] | Ab: MIC Acinetobacter baumannii ATCC 19606 [4]
1 | N=C(N)NCC/C=C(\NC(=O)[C@H](CCCCN)NC(=O)[C@H](Cc1cnc[nH]1)NC(=O)[C@@H]1CCCN1C(=O)[C@@H](CCCN)NC(=O)CNC(=O)[C@H](CCN)NC(=O)[C@H](CCN)NC(=O)[C@@H](N)CCCCN)C(=O)N[C@@H](CCCCN)C(=O)NCCCCN [11.1] (H-K[Dab][Dab]G[dOrn]PHK[ΔZArg]K-{NH(CH2)4NH2}) | ++ (≤8 μg/mL) | − (>32 μg/mL) | − (>32 μg/mL) | − (>32 μg/mL)
2 | N=C(N)NCC/C=C(\NC(=O)[C@H](CCCCN)NC(=O)[C@H](Cc1cnc[nH]1)NC(=O)[C@@H]1CCCN1C(=O)[C@@H](CCCN)NC(=O)CNC(=O)[C@@H](NC(=O)[C@H](CCN)NC(=O)[C@@H](N)CCCCN)[C@@H](O)CN)C(=O)N[C@@H](CCCCN)C(=O)NCCCCN [12.1] (H-K[Dab][Dab(3S-OH)]G[dOrn]PHK[ΔZArg]K-{NH(CH2)4NH2}) | ++ (≤8 μg/mL) | − (>32 μg/mL) | − (>32 μg/mL) | − (>32 μg/mL)
3 | N=C(N)NCC/C=C(\NC(=O)[C@H](CCCCN)NC(=O)[C@H](Cc1cnc[nH]1)NC(=O)[C@@H]1CCCN1C(=O)[C@@H](CCCN)NC(=O)CNC(=O)CNC(=O)[C@H](CCN)NC(=O)[C@@H](N)CCCCN)C(=O)N[C@@H](CCCCN)C(=O)NCCCCN [13.1] (H-K[Dab]GG[dOrn]PHK[ΔZArg]K-{NH(CH2)4NH2}) | + (≤32 μg/mL) | − (>32 μg/mL) | − (>32 μg/mL) | − (>32 μg/mL)
4 | C[C@H](NC(=O)[C@H](CCN)NC(=O)[C@@H](N)CCCCN)C(=O)NCC(=O)N[C@H](CCCN)C(=O)N1CCC[C@H]1C(=O)N[C@@H](Cc1cnc[nH]1)C(=O)N[C@@H](CCCCN)C(=O)N/C(=C/CCNC(=N)N)C(=O)N[C@@H](CCCCN)C(=O)NCCCCN [14.1] (H-K[Dab]AG[dOrn]PHK[X4]K-{NH(CH2)4NH2}) | ++ (≤8 μg/mL) | + (≤32 μg/mL) | − (>32 μg/mL) | − (>32 μg/mL)
5 | C[C@H](NC(=O)[C@H](CCN)NC(=O)[C@@H](N)CCCCN)C(=O)NCC(=O)N[C@H](CCCN)C(=O)N1CCC[C@H]1C(=O)N[C@@H](Cc1cnc[nH]1)C(=O)N[C@@H](CCCCN)C(=O)N/C(=C\CCNC(=N)N)C(=O)N[C@@H](CCCCN)C(=O)NCCCCN [14.2] (H-K[Dab]AG[dOrn]PHK[ΔZArg]K-{NH(CH2)4NH2}) | ++ (≤8 μg/mL) | + (≤32 μg/mL) | − (>32 μg/mL) | − (>32 μg/mL)
6 | C[C@H](NC(=O)[C@H](CCN)NC(=O)[C@@H](N)CCCCN)C(=O)NCC(=O)N[C@H](CCCN)C(=O)N1C[C@@H](F)C[C@H]1C(=O)N[C@@H](Cc1cnc[nH]1)C(=O)N[C@@H](CCCCN)C(=O)N/C(=C\CCNC(=N)N)C(=O)N[C@@H](CCCCN)C(=O)NCCCCN [14.4] (H-K[Dab]AG[dOrn][Pro(cis-4-F)]HK[ΔZArg]K-{NH(CH2)4NH2}) | ++ (≤8 μg/mL) | − (>32 μg/mL) | − (>32 μg/mL) | − (>32 μg/mL)
7 | C[C@H](NC(=O)[C@H](CCN)NC(=O)[C@@H](N)CCCCN)C(=O)NCC(=O)N[C@H](CCCN)C(=O)N1CCC[C@H]1C(=O)N[C@@H](Cc1cnc[nH]1)C(=O)N[C@@H](CCCCN)C(=O)N/C(=C\CCNC(=N)N)C(=O)N[C@@H](CCCCN)C(=O)NCCCCCN [14.5] (H-K[Dab]AG[dOrn]PHK[ΔZArg]K-{NH(CH2)5NH2}) | ++ (≤8 μg/mL) | + (≤32 μg/mL) | − (>32 μg/mL) | − (>32 μg/mL)
8 | C[C@H](NC(=O)[C@H](CCN)NC(=O)[C@@H](N)CCCCN)C(=O)NCC(=O)N[C@H](CCCN)C(=O)N1CCC[C@H]1C(=O)N[C@@H](Cc1cnc[nH]1)C(=O)N[C@@H](CCCCN)C(=O)N/C(=C\CCNC(=N)N)C(=O)N[C@@H](CCCCN)C(=O)NCCN [14.6] (H-K[Dab]AG[dOrn]PHK[ΔZArg]K-Ethylenediamine) | ++ (≤8 μg/mL) | + (≤32 μg/mL) | − (>32 μg/mL) | − (>32 μg/mL)
9 | C[C@H](NC(=O)[C@H](CCN)NC(=O)[C@@H](N)CCCCN)C(=O)NCC(=O)N[C@H](CCCN)C(=O)N1C[C@H](F)C[C@H]1C(=O)N[C@@H](Cc1cnc[nH]1)C(=O)N[C@@H](CCCCN)C(=O)N/C(=C\CCNC(=N)N)C(=O)N[C@@H](CCCCN)C(=O)NCCCCN [14.7] (H-K[Dab]AG[dOrn][Pro(trans-4-F)]HK[ΔZArg]K-{NH(CH2)4NH2}) | ++ (≤8 μg/mL) | − (>32 μg/mL) | − (>32 μg/mL) | − (>32 μg/mL)
10 | CN[C@@H](CCCCN)C(=O)N[C@@H](CCN)C(=O)N[C@@H](C)C(=O)NCC(=O)N[C@H](CCCN)C(=O)N1CCC[C@H]1C(=O)N[C@@H](Cc1cnc[nH]1)C(=O)N[C@@H](CCCCN)C(=O)N/C(=C\CCNC(=N)N)C(=O)N[C@@H](CCCCN)C(=O)NCCCCN [14.9] (H-[NMeK][Dab]AG[dOrn]PHK[ΔZArg]K-{NH(CH2)4NH2}) | ++ (≤8 μg/mL) | − (>32 μg/mL) | − (>32 μg/mL) | − (>32 μg/mL)
11 | C[C@H](NC(=O)[C@H](CCN)NC(=O)[C@@H](N)CCCCN)C(=O)NCC(=O)N[C@H](CCCN)C(=O)N1CC(F)(F)C[C@H]1C(=O)N[C@@H](Cc1cnc[nH]1)C(=O)N[C@@H](CCCCN)C(=O)N/C(=C\CCNC(=N)N)C(=O)N[C@@H](CCCCN)C(=O)NCCCCN [14.10] (H-K[Dab]AG[dOrn][Pro(4,4-F2)]HK[ΔZArg]K-{NH(CH2)4NH2}) | ++ (≤8 μg/mL) | − (>32 μg/mL) | − (>32 μg/mL) | − (>32 μg/mL)
12 | C[C@H](NC(=O)[C@H](CCN)NC(=O)[C@@H](N)CCCCN)C(=O)NCC(=O)N[C@H](CCCN)C(=O)N1CCC[C@H]1C(=O)N[C@@H](Cc1cnc[nH]1)C(=O)N[C@@H](CCCCN)C(=O)N/C(=C\CCNC(=N)N)C(=O)N[C@H](CCCCN)C(=O)NCCCCN [14.11] (H-K[Dab]AG[dOrn]PHK[ΔZArg][dK]-{NH(CH2)4NH2}) | ++ (≤8 μg/mL) | − (>32 μg/mL) | − (>32 μg/mL) | − (>32 μg/mL)
13 | C[C@H](NC(=O)[C@H](CCN)NC(=O)[C@@H](N)CCCCN)C(=O)NCC(=O)N[C@H](CCCN)C(=O)N1CCC[C@H]1C(=O)N[C@@H](Cc1cnc[nH]1)C(=O)N[C@@H](CCCCN)C(=O)N/C(=C\CCNC(=N)N)C(=O)N[C@@H](CCCCN)C(N)=O [14.12] (H-K[Dab]AG[dOrn]PHK[ΔZArg]K-NH2) | ++ (≤8 μg/mL) | + (≤32 μg/mL) | − (>32 μg/mL) | − (>32 μg/mL)
14 | C[C@H](NC(=O)[C@H](CCN)NC(=O)[C@@H](N)CCCCN)C(=O)NCC(=O)N[C@H](CCCN)C(=O)N1CCCC[C@H]1C(=O)N[C@@H](Cc1cnc[nH]1)C(=O)N[C@@H](CCCCN)C(=O)N/C(=C\CCNC(=N)N)C(=O)N[C@@H](CCCCN)C(=O)NCCCCN [14.13] (H-K[Dab]AG[dOrn][Pip]HK[ΔZArg]K-{NH(CH2)4NH2}) | ++ (≤8 μg/mL) | + (≤32 μg/mL) | − (>32 μg/mL) | − (>32 μg/mL)
15 | C[C@H](NC(=O)[C@H](CCN)NC(=O)[C@@H](N)CCCCN)C(=O)NCC(=O)N[C@H](CCCN)C(=O)N1CCC[C@H]1C(=O)N[C@@H](Cc1cnc[nH]1)C(=O)N[C@@H](CCCCN)C(=O)N/C(=C\CCNC(=N)N)C(=O)N[C@@H](CCCCN)C(=O)NO [14.14] (H-K[Dab]AG[dOrn]PHK[ΔZArg]K-{NHOH}) | ++ (≤8 μg/mL) | − (>32 μg/mL) | − (>32 μg/mL) | − (>32 μg/mL)
16 | C[C@H](NC(=O)[C@H](CCN)NC(=O)[C@@H](N)CCCCN)C(=O)NCC(=O)N[C@H](CCCN)C(=O)N1C[C@@H](C(F)(F)F)C[C@H]1C(=O)N[C@@H](Cc1cnc[nH]1)C(=O)N[C@@H](CCCCN)C(=O)N/C(=C\CCNC(=N)N)C(=O)N[C@@H](CCCCN)C(=O)NCCCCN [14.15] (H-K[Dab]AG[dOrn][Pro(cis-4-CF3)]HK[ΔZArg]K-{NH(CH2)4NH2}) | ++ (≤8 μg/mL) | − (>32 μg/mL) | − (>32 μg/mL) | − (>32 μg/mL)
17 | C[C@H](NC(=O)[C@@H](NC(=O)[C@@H](N)CCCCN)[C@@H](O)CN)C(=O)NCC(=O)N[C@H](CCCN)C(=O)N1CCC[C@H]1C(=O)N[C@@H](Cc1cnc[nH]1)C(=O)N[C@@H](CCCCN)C(=O)N/C(=C\CCNC(=N)N)C(N)=O [24.5] (H-K[Dab(3S-OH)]AG[dOrn]PHK[ΔZArg]-NH2) | – | – | − (>32 μg/mL) | − (>32 μg/mL)
18 | C[C@H](NC(=O)[C@@H](NC(=O)[C@@H](N)CCCCN)[C@@H](O)CN)C(=O)NCC(=O)N[C@H](CCCN)C(=O)N1CCC[C@H]1C(=O)N[C@@H](Cc1cnc[nH]1)C(=O)N[C@@H](CCCCN)C(=O)N/C(=C\CCNC(=N)N)C(N)=O [24.125] (H-K[Dab(3S-OH)]AG[dOrn]PHK[ΔZArg]-NH2) | ++ (≤8 μg/mL) | ++ (≤8 μg/mL) | – | –
